In one data set the test system is human red blood cells. As to the kind of experiment: Hemolysis assay. It counts as cell-based. Particulars: 2% human RBCs (K2EDTA blood) in PBS, 1 h, 37°C.
Data set [1] has as its system E. coli ATCC 51659 (MDR, O157:H7). Particulars: Mueller Hinton Broth; for Minimum inhibitory concentration (MIC): MDR strain, CLSI broth microdilution, 5 × 10^4 CFU/well, OD600, <10% of untreated control = clear, n = 3; for Minimum inhibitory concentration (MIC) / Antibacterial screening: growth inhibition / bactericidal activity: 16–20 h, 37°C; for Antibacterial screening: growth inhibition / bactericidal activity: 5 × 10^5 CFU/mL, OD600, n = 3. A general note: In broth dilution the organism is exposed to a series of concentrations in liquid medium.

A further data set deals with E. coli ATCC 51659. It is filed as cell-based, Escherichia coli. As for the experimental part: (§1) The antimicrobial activity of the PHNX peptides (China Peptides custom synthesis) and LL-37 (AnaSpec 61302) against bacteria was determined as previously described ([Barksdale et al., 2016], [2017]). Briefly, 1 × 10^5 CFU per well of bacteria were incubated with different peptide concentrations (n = 3) in a 50-μl solution of 10 mM sodium phosphate buffer (3 h, 37°C). Serial dilutions were then prepared in 1X Dulbecco’s PBS and 8 μl of each dilution was spotted in triplicate on Tryptic Soy Agar plates, which were incubated (37°C, 24 h) and CFUs were counted ([Barksdale et al., 2016], [2017]). Bacterial survival at each peptide concentration was calculated based on the ratio of the number of colonies on each experimental plate and the average number of colonies observed for assay cultures lacking peptide. The peptide concentration required to kill 50% of the viable bacteria in the assay cultures (EC50) was determined by plotting percent survival as a function of the log of peptide concentration (log μg/ml) and fitting the data using GraphPad Prism 6 (GraphPad Software Inc., San Diego, CA, United States). For the purpose of graphing, samples that had no peptide (0 μg/ml) are plotted at 1 × 10^–7 μg/ml peptide. EC50 values were determined by fitting the data from the antimicrobial assays to a standard sigmoidal dose–response curve. […] Wells containing only 10 mM sodium phosphate buffer were used as sterility control.

For the next data set, the system named is S. aureus ATCC 33592. It counts as cell-based, Staphylococcus aureus. As for the experimental part: as §1
Data set [2] has as its system E. coli ATCC 4157 (antibiotic susceptible). Particulars: Mueller Hinton Broth; for Minimum inhibitory concentration (MIC): antibiotic susceptible strain, CLSI broth microdilution, 5 × 10^4 CFU/well, OD600, n = 3.
Data set [3] concerns S. aureus ATCC 33592 (MDR, MRSA). To be noted: Mueller Hinton Broth, 16–20 h, 37°C; for Minimum inhibitory concentration (MIC): MDR (MRSA) strain, CLSI broth microdilution, 5 × 10^4 CFU/well, OD600, n = 3; for Antibacterial screening: growth inhibition / bactericidal activity: peptide 100 μg/ml, 5 × 10^5 CFU/mL, OD600, n = 3.
Data set [4] has as its system S. aureus ATCC BAA-1718 (antibiotic susceptible). To be noted: antibiotic susceptible strain; CLSI broth microdilution, Mueller Hinton Broth, 5 × 10^4 CFU/well, 16–20 h, 37°C, OD600; n = 3.
Where [5] appears, read: peptide 100 μg/ml, OD540, DI water = full lysis, n = 3.
The mark [6] stands for this setting: same EC50 presented in micromolar units, 10 mM sodium phosphate buffer, 3 h, 37°C, read-out: EC50.

In brackets after ≈: the same amount, converted by molar mass. Read-outs that look alike come from different tables or passages of the source. No end group written: not given here. A value given as a limit tells only on which side of the number the result lay.

With `CC[C@H](C)[C@H](NC(=O)[C@H](CCCCN)NC(=O)[C@H](CCC(=O)O)NC(=O)[C@H](CCCCN)NC(=O)[C@H](CO)NC(=O)[C@H](CCCCN)NC(=O)[C@H](CCCNC(=N)N)NC(=O)[C@H](Cc1ccccc1)NC(=O)[C@H](Cc1ccccc1)NC(=O)[C@H](CC(=O)O)NC(=O)CNC(=O)[C@H](CC(C)C)NC(=O)[C@@H](N)CC(C)C)C(=O)NCC(=O)N[C@@H](CCCCN)C(=O)N[C@@H](CCC(=O)O)C(=O)N[C@@H](Cc1ccccc1)C(=O)N[C@@H](CCCCN)C(=O)N[C@@H](CCCNC(=N)N)C(=O)N[C@H](C(=O)N[C@H](C(=O)N[C@@H](CCC(N)=O)C(=O)N[C@@H](CCCNC(=N)N)C(=O)N[C@H](C(=O)N[C@@H](CCCCN)C(=O)N[C@@H](CC(=O)O)C(=O)N[C@@H](Cc1ccccc1)C(=O)N[C@@H](CC(C)C)C(=O)N[C@@H](CCCNC(=N)N)C(=O)N[C@@H](CC(N)=O)C(=O)N[C@@H](CC(C)C)C(=O)N[C@H](C(=O)N1CCC[C@H]1C(=O)N[C@@H](CCCNC(=N)N)C(=O)N[C@H](C(=O)N[C@@H](CCC(=O)O)C(=O)N[C@@H](CO)C(=O)O)[C@@H](C)O)C(C)C)[C@@H](C)CC)C(C)C)[C@@H](C)CC` [LL-37], the Hemolysis result was “negligible hemolysis” in the data set with human red blood cells (peptide 1 μg/ml, OD540, n = 3) and “approximately 40%” in the data set on human red blood cells (setting [5]). In data set [1], the “Minimum inhibitory concentration (MIC)” value was 32 µg/mL (≈ 7.12 µM).

Take FGKLLKLGKGLGG [PHNX-2]: the EC50 in the data set on E. coli ATCC 51659 (ATCC 51659, 3 h) is above 7780 nM; in the data set with S. aureus ATCC 33592 (setting [6]), above 7780 nM. Moreover, the “Minimum inhibitory concentration (MIC)” value in data set [1] was above 100 µg/mL.

Consider FGKLLKLGKGLKG [PHNX-3], for which, in the data set with E. coli ATCC 51659 (ATCC 51659, 3 h), the “Half maximal effective concentration (EC50)” value is above 10 µg/mL. Besides, the 50% effective concentration (EC50) in the data set on S. aureus ATCC 33592 (setting [6]) is above 7340 nM. In addition, the “Minimum inhibitory concentration (MIC)” value in data set [1] was above 100 µg/mL.

For the compound FIGAIASYLKKFR [PHNX-6], the EC50 worked out at 1720 nM in the data set with E. coli ATCC 51659 (ATCC 51659, 3 h) and 5240 nM in the data set with S. aureus ATCC 33592 (ATCC 33592, 3 h). Further, the “Half maximal effective concentration (EC50)” value with E. coli ATCC 51659 (ATCC 51659, 3 h) is at most 10 µg/mL. For the same compound, the “Minimum inhibitory concentration (MIC)” value in data set [1] is above 100 µg/mL.

As for FLIKILKGGKGGK [PHNX-5], in the data set on E. coli ATCC 51659 (ATCC 51659, 3 h), the concentration for a half-maximal effect (EC50) was found to be 3640 nM and the “Half maximal effective concentration (EC50)” value is at most 10 µg/mL. This compound also came in with an EC50 in the data set with S. aureus ATCC 33592 (ATCC 33592, 3 h) above 7360 nM. Besides, the “Minimum inhibitory concentration (MIC)” value in data set [1] is above 100 µg/mL.

With FLLKIVALLKKKLL [PHNX-1], in the data set with E. coli ATCC 51659 (ATCC 51659, 3 h), the concentration for a half-maximal effect (EC50) was 80 nM and the “Half maximal effective concentration (EC50)” value was at most 10 µg/mL. In addition, the EC50 in the data set on S. aureus ATCC 33592 (ATCC 33592, 3 h) was found to be 140 nM.

As for FLLKLGLGKKKLL [PHNX-4], in the data set with E. coli ATCC 51659 (ATCC 51659, 3 h), the midpoint of the response, the EC50, lay at 1980 nM and the “Half maximal effective concentration (EC50)” value is at most 10 µg/mL. The compound further had an EC50 with S. aureus ATCC 33592 (ATCC 33592, 3 h) of 3290 nM.

As to “GLMDTVKNAAKNLAGQLLD KIKCKITG (disulfide) [PHNX-8]”, the values for the concentration giving a half-maximal response (EC50) with E. coli ATCC 51659 (setting [6]) and with S. aureus ATCC 33592 (setting [6]) were 20 nM and 1120 nM, respectively. Further, the “Half maximal effective concentration (EC50)” value in the data set on S. aureus ATCC 33592 (low salt: 10 mM sodium phosphate buffer, 1 × 10^5 CFU per well, 3 h, 37°C, CFU counting, sigmoidal fit, n = 3) was determined as 3.31 µg/mL. Besides, the “Minimum inhibitory concentration (MIC)” value in data set [1] was 64 µg/mL; in data set [2] (16–20 h, 37°C) it was 32 µg/mL. For the same compound, the “Antibacterial screening: growth inhibition / bactericidal activity” value in data set [1] (peptide 100 μg/ml) is listed as “showed activity”; in data set [2] (peptide 100 μg/ml, 5 × 10^5 CFU/mL, 16–20 h, 37°C, OD600, n = 3), “showed activity”. Further, the “Antibacterial screening: bacterial survival” value in data set [1] (peptide 100 μg/ml, Figure 3C) was around 0%; in data set [2] (peptide 100 μg/ml, Figure 3A) it was around 0%.

As for GVVDIIKGAGKKFAKGLAGKIANKK [PHNX-7], in the data set with E. coli ATCC 51659 (ATCC 51659, 3 h), the EC50 stood at 20 nM and the “Half maximal effective concentration (EC50)” value was at most 10 µg/mL. The concentration giving a half-maximal response (EC50) in the data set with S. aureus ATCC 33592 (ATCC 33592, 3 h) amounted to 830 nM.

For the compound “KRFKKFFRKLKKSVKKRAKEFFKKPRVIGVSIPF [BF-CATH, reference compound]”, the “Minimum inhibitory concentration (MIC)” value in data set [1] worked out at 8 µg/mL; in data set [3], 64 µg/mL; in data set [2] (16–20 h, 37°C), 4 µg/mL. Moreover, the “Antibacterial screening: growth inhibition / bactericidal activity” value in data set [1] (peptide 100 μg/ml) and in data set [3] was 100% each time.

With “VRLIVAVRIWRR-NH2 (C-terminus assumed) [IDR-1018]”, the Hemolysis result is recorded as “negligible hemolysis” with human red blood cells (peptide 1 μg/ml, OD540, n = 3); around 10% with human red blood cells (peptide 10 μg/ml, OD540, n = 3); “approximately 40%” in the data set with human red blood cells (setting [5]). In addition, the “Minimum inhibitory concentration (MIC)” value in data set [1], in data set [3] and in data set [4] was around 16 µg/mL throughout. Further, the “Antibacterial screening: growth inhibition / bactericidal activity” value in data set [1] (peptide 100 μg/ml) and in data set [3] was 100% throughout.

The term EC50 denotes the concentration giving half of the maximal effect.

The values are drawn from publication PMC8636942, “Ab initio Designed Antimicrobial Peptides Against Gram-Negative Bacteria” (Frontiers in Microbiology, 2021).
